Reference: article PMC9860728, “Identification of New N-methyl-piperazine Chalcones as Dual MAO-B/AChE Inhibitors” (Pharmaceuticals, 2023)

How the values were obtained:
MAO-B [1] = molecular target: T1, MAO-B (Homo sapiens, UniProt P27338); details: MAO-B selectivity over MAO-A; cited from earlier work
T1 construct: purchased Sigma Aldrich
T1 sequence (P27338 1-520): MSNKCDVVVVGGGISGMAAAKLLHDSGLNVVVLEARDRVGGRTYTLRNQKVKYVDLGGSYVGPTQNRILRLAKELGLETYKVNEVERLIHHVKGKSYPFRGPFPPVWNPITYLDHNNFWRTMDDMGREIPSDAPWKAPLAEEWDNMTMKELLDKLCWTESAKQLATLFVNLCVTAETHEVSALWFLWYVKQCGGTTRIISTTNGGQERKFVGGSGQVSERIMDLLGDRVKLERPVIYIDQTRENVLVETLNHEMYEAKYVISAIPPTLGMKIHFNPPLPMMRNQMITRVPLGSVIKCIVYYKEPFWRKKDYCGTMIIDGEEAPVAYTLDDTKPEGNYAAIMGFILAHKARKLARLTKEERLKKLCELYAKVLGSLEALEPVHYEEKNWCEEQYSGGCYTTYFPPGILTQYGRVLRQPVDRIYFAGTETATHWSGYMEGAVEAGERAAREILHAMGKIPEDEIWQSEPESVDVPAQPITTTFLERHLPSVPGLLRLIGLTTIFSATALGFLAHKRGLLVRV

MAO-B [2] = molecular target: T1, MAO-B; test: Reversibility test for MAO-B using dialysis method; assay type: biochemical; details: for Residual activity of MAO-B after dialysis: after dialysis for 6 h, inhibitor at ~2 × IC50
Protocol: Reversibility of the compounds for MAO-B was measured using the dialysis method. […] The reaction mixture was placed in a dialysis tube (DiaEasyTM Dialyzer (800 µL) MWCO 6–8 kDa, Biovision, CA, USA) and dialyzed for 6 h. After that, the 0.3 mM of benzylamine was added into the reaction mixture for measuring enzyme activity. The relative activity to the control (without inhibitors) before and after dialysis was calculated, respectively.

AChE [3] = molecular target: T2, AChE (Electrophorus electricus, UniProt O42275); test: AChE inhibition kinetics (Lineweaver–Burk and secondary plots); assay type: biochemical
MAO-A = molecular target: T3, MAO-A (Homo sapiens, UniProt P21397); test: MAO-A enzyme inhibition assay (kynuramine substrate); assay type: biochemical; details: mean ± SD
T3 construct: purchased Sigma Aldrich
T3 sequence (P21397 1-527): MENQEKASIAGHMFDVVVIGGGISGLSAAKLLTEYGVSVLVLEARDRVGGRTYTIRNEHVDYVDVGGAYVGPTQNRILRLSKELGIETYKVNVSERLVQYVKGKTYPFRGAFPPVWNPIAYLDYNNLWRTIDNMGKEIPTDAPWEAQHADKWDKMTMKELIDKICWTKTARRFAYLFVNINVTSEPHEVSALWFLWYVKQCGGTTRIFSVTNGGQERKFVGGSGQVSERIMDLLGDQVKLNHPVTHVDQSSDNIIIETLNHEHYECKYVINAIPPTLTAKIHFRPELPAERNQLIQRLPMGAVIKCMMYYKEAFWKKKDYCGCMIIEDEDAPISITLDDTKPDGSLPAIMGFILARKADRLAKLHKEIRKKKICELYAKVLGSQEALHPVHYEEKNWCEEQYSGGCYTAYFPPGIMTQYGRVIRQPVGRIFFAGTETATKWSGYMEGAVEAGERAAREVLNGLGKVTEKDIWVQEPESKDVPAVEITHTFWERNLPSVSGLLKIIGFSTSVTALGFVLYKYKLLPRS
Protocol: MAO assays were performed as described previously, i.e., ~0.09 U/mL of MAO-A and MAO-B were reacted with 0.06 mM kynuramine and 0.3 mM benzylamine, respectively, in 50 mM sodium phosphate (pH 7.2). […] For inhibition assay, the compounds were dissolved in DMSO and added into the reaction mixture. The final concentration of DMSO in the reaction mixture was less than 1% to avoid solvent disturbance.

[4] = Cytotoxicity MTT assay on normal Vero cells; details: African green monkey
Protocol: The reference compound staurosporine was purchased from Sigma-Aldrich (Saint Louis, MO, USA). […] CellTiter 96® Non-Radioactive Cell Proliferation Assay (MTT) reagent was purchased from Promega (Cat# G4000). The normal Vero cell line was purchased from ATCC. Normal Vero cells were cultured with EMEM medium plus 10% FBS. In total, 100 µg/mL penicillin and 100 µg/mL streptomycin were added to the culture media.
The test compounds (100 nL) and staurosporine (25 nL) were delivered from the source plate to the wells of 384-well cell culture plates by Echo 550 Liquid Handler. […] MTT Dye Solution (8 µL) was added to each well, and the plates were incubated at 37 °C in a CO2 incubator for 6 h. After incubation, the formazan was produced in the cells. Solubilization/Stop Solution (30 µL) was added to each well and the plates were incubated for another 1 h at 37 °C in a CO2 incubator to dissolve the formazan crystals. […] The IC50 curves were plotted, and the IC50 values were calculated using the GraphPad Prism 4 program based on a sigmoidal dose–response equation.

AChE [5] = molecular target: T2, AChE; test: AChE inhibition assay (Ellman method, ATCI); assay type: biochemical; details: mean ± SD
Protocol: (§1) For measuring cholinesterase (ChE) activity, the Ellman method was employed with a slight modification. The AChE and BchE with ~0.02 U/mL were reacted with 0.5 mM ATCI and BTCI, respectively, followed by addition of 0.5 mM DTNB. […] In the inhibition assay, the enzyme and the compound were preincubated in reaction buffer for 15 min, followed by adding substrates and DTNB.

BChE = BChE (Equus caballus, UniProt P81908); test: biochemical
Protocol: as §1

AChE [6] = molecular target: T2, AChE; details: read-out: Ki AChE; morpholine-based chalcones; cited from earlier work
[7] = read-out: Residual activity of MAO-B before dialysis

T2 sequence (O42275 24-633): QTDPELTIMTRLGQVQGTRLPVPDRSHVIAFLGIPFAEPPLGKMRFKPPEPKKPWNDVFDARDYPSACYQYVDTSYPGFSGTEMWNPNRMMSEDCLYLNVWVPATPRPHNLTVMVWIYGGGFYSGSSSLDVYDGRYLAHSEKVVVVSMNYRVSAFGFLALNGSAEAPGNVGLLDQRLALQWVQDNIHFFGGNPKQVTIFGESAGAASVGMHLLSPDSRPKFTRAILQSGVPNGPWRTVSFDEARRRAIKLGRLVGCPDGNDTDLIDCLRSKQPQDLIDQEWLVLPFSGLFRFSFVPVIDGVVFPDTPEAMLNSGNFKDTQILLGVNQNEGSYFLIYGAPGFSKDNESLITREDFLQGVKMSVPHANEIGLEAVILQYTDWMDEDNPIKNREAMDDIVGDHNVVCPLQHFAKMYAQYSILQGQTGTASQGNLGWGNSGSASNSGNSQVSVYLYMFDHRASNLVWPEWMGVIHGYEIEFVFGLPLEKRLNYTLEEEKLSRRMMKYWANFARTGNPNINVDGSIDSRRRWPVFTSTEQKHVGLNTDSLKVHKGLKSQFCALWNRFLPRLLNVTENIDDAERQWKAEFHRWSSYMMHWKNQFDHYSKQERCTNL
Chain of BChE (P81908 whole entry): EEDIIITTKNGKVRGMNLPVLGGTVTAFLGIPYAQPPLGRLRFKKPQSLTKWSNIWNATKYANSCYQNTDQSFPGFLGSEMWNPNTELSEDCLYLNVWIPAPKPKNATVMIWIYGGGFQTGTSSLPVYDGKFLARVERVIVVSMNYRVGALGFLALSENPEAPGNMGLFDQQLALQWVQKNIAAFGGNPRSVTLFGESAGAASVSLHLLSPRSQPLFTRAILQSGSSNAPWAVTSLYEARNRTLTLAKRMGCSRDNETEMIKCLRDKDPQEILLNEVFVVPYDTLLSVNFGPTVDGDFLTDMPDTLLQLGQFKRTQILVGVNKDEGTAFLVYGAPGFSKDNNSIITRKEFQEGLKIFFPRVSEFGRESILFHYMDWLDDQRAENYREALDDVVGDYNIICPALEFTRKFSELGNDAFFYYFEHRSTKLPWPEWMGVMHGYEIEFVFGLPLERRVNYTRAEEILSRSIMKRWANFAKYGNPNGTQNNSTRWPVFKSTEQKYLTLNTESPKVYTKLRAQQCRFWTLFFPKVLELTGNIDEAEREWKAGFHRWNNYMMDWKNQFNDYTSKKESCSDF

SMILES: O=C(/C=C/c1ccc(F)cc1)c1ccc(N2CCNCC2)cc1 [PC10]
- SI (MAO) (MAO-B [1]): 48.3

SMILES: C#CCN(C)Cc1ccccc1 [Pargyline, reference compound]
- Residual activity of MAO-B after dialysis (MAO-B [2]): 24.88%

SMILES: CN1CCN(c2ccc(C(=O)/C=C/c3ccc(F)c(C(F)(F)F)c3)cc2)CC1 [Compound 2k, (E)-3-(4-fluoro-3-(trifluoromethyl)phenyl)-1-(4-(4-methylpiperazin-1-yl)phenyl)prop-2-en-1-one]
- Inhibition pattern for AChE (AChE [3]): mixed type
- remaining activity at 10 µM (MAO-A; 10 μM compound, read-out: Residual Activities at 10 μM (%) MAO-A): 96.4 ± 3.03%
- IC50 (MAO-A): > 40 µM
- IC50 at 72 h [4]: 19.9 µM
- remaining activity at 10 µM (AChE [5]; 10 μM compound, read-out: Residual Activities at 10 μM (%) AChE): 46.9 ± 2.58%
- Residual activity of MAO-B after dialysis (MAO-B [2]): 80.26%
- Reversibility of MAO-B inhibition (MAO-B [2]; dialysis method): reversible
- remaining activity at 1.16 µM (MAO-B [2]; [7]): 14.6%
- remaining activity at 10 µM (BChE; read-out: Residual Activities at 10 μM (%) BChE): 61.8 ± 5.54%

SMILES: O=C(/C=C/c1ccc(C(F)(F)F)cc1)c1ccc(N2CCNCC2)cc1 [PC11]
- SI (MAO) (MAO-B [1]): 49.2

SMILES: NCCNC(=O)c1ccc(Cl)cn1 [Lazabemide, reference compound]
- Residual activity of MAO-B after dialysis (MAO-B [2]): 98.78%
- remaining activity at 0.22 µM (MAO-B [2]; [7]): 20.5%

SMILES: O=C(/C=C/c1ccc(Br)cc1)c1ccc(N2CCOCC2)cc1 [MO9]
- Ki (AChE [6]): 7.04 µM

SMILES: CN(C)c1ccc(/C=C/C(=O)c2ccc(N3CCOCC3)cc2)cc1 [MO5]
- Ki (AChE [6]): 2.52 µM

SMILES: CN1CCN(c2ccc(C(=O)/C=C/c3cc(Br)ccc3F)cc2)CC1 [Compound 2n, (E)-3-(5-bromo-2-fluorophenyl)-1-(4-(4-methylpiperazin-1-yl)phenyl)prop-2-en-1-one]
- Inhibition pattern for AChE (AChE [3]): mixed type
- IC50 at 72 h [4]: 62 µM
- IC50 (AChE [5]): 4.32 ± 0.39 µM
- Residual Activities at 10 μM (%) BChE (BChE; 10 μM compound, mean ± SD): 43.21 ± 2.88%
